Key:
Test in all cases: KinaseProfiler Assay
CHK1 = target: T1, CHK1 (Homo sapiens, UniProt O14757)
T1 sequence (O14757 1-476): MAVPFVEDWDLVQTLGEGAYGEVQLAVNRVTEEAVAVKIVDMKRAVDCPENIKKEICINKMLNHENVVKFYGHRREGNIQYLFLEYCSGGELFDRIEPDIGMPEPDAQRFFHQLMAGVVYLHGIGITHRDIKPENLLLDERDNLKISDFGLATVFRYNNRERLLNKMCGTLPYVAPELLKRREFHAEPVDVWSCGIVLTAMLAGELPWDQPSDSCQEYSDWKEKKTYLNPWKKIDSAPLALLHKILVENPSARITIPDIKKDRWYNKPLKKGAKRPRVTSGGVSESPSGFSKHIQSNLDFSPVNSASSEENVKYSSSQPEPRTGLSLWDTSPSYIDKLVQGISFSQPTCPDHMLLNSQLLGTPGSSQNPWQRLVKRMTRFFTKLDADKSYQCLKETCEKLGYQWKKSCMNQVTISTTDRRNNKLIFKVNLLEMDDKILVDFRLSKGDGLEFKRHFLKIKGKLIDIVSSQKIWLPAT

PKBβ = PKBβ (Homo sapiens, UniProt P31751)
JAK3 = target: T2, JAK3 (Homo sapiens, UniProt P52333)
T2 sequence (P52333 1-1124): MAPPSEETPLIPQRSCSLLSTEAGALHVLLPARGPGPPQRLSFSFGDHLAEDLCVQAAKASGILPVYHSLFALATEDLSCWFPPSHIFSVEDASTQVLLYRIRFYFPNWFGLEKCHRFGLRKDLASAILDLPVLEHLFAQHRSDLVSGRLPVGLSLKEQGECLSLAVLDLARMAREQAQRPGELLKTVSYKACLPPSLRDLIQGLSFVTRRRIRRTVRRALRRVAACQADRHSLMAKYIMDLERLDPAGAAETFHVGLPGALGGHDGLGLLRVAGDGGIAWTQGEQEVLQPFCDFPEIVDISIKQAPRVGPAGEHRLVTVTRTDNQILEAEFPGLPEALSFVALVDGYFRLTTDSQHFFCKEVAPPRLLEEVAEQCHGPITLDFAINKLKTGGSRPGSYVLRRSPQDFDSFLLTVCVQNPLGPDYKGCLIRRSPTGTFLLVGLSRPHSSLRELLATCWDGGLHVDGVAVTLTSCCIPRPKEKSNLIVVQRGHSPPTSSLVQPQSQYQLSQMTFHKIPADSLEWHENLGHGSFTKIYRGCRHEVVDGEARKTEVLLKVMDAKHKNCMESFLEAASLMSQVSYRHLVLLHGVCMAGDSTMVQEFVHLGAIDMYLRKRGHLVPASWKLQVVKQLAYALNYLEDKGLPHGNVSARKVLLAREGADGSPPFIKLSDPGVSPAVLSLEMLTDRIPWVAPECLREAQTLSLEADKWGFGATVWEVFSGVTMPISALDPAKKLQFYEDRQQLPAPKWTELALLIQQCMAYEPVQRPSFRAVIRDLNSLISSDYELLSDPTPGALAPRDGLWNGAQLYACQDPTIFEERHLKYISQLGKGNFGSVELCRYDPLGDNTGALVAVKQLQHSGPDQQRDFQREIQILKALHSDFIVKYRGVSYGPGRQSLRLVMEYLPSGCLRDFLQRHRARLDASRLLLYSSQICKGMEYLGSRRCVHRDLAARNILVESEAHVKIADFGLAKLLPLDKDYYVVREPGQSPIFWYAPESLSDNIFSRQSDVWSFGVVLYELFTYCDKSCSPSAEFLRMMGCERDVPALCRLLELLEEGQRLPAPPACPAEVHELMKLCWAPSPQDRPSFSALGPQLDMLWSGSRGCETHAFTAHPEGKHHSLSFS

Fyn = Fyn (Homo sapiens, UniProt P06241)
PhKγ2 = target: T3, PhKγ2 (Homo sapiens, UniProt P15735)
T3 sequence (P15735 1-406): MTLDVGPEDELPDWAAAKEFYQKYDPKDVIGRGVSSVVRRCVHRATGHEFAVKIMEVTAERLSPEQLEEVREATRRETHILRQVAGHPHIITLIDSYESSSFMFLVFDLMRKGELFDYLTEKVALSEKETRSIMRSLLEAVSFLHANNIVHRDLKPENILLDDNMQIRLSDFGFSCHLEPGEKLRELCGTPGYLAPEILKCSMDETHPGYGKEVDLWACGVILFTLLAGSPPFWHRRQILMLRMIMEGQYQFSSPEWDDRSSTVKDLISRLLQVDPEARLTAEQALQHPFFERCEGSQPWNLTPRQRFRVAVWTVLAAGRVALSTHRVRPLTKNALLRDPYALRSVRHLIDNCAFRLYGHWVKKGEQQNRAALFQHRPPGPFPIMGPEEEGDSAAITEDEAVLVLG

EphA2 = EphA2 (Homo sapiens, UniProt P29317)
Ron = Ron (Homo sapiens, UniProt Q04912)
MAPKAP-K2 = MAPKAP-K2 (Homo sapiens, UniProt P49137)
IRAK1 = IRAK1 (Homo sapiens, UniProt P51617)
CK1γ2 = CK1γ2 (Homo sapiens, UniProt P78368)
Chain of CK1γ2 (P78368 whole entry): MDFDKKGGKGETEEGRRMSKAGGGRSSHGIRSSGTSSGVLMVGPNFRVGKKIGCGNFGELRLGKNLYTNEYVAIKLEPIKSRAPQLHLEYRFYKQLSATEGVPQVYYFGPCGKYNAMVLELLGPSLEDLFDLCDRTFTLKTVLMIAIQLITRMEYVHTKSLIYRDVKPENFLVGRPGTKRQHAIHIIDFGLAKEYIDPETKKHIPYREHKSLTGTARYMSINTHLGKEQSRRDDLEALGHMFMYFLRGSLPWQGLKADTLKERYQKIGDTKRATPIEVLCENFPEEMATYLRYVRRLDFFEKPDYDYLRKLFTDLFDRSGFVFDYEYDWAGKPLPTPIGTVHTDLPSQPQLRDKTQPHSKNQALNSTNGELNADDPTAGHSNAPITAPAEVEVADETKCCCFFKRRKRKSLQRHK

Chain of EphA2 (P29317 24-976): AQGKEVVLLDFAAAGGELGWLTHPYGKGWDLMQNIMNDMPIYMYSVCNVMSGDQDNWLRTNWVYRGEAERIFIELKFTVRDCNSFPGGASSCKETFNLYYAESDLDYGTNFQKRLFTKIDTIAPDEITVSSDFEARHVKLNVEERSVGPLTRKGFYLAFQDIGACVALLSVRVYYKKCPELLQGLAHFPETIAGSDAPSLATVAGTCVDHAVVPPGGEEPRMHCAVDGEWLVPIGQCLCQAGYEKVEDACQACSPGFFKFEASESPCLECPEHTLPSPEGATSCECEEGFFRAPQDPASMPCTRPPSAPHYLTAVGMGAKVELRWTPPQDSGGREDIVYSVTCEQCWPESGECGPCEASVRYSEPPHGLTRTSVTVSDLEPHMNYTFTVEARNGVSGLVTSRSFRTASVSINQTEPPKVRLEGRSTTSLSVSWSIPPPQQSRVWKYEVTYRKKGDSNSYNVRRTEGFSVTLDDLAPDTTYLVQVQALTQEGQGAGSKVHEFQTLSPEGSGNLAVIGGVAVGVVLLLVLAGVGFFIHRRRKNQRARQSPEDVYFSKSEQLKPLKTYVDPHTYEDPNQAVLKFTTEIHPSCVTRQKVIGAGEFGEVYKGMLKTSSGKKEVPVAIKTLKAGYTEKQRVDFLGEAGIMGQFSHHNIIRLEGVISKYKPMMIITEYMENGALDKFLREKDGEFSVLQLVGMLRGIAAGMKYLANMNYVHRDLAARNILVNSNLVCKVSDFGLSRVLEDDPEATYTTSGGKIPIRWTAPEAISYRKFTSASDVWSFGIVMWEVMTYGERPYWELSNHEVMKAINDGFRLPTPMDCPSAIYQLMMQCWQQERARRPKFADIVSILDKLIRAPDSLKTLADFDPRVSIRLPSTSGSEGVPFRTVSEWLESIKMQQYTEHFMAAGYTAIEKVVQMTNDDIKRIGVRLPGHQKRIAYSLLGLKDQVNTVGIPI
Chain of Fyn (P06241 whole entry): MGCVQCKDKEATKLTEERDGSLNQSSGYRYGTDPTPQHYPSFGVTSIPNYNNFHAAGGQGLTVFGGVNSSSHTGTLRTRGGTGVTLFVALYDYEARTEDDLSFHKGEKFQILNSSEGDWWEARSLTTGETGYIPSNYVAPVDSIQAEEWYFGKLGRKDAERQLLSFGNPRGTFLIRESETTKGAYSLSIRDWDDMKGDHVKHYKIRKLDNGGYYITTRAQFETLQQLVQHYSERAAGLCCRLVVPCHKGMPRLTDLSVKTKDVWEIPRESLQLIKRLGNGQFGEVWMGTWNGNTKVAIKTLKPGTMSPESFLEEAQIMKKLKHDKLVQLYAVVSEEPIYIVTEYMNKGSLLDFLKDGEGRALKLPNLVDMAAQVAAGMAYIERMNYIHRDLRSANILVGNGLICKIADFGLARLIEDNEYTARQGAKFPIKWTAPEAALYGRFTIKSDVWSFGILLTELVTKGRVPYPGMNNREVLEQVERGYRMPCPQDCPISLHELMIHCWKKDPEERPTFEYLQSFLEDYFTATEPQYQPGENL
Chain of Ron (Q04912 25-1400): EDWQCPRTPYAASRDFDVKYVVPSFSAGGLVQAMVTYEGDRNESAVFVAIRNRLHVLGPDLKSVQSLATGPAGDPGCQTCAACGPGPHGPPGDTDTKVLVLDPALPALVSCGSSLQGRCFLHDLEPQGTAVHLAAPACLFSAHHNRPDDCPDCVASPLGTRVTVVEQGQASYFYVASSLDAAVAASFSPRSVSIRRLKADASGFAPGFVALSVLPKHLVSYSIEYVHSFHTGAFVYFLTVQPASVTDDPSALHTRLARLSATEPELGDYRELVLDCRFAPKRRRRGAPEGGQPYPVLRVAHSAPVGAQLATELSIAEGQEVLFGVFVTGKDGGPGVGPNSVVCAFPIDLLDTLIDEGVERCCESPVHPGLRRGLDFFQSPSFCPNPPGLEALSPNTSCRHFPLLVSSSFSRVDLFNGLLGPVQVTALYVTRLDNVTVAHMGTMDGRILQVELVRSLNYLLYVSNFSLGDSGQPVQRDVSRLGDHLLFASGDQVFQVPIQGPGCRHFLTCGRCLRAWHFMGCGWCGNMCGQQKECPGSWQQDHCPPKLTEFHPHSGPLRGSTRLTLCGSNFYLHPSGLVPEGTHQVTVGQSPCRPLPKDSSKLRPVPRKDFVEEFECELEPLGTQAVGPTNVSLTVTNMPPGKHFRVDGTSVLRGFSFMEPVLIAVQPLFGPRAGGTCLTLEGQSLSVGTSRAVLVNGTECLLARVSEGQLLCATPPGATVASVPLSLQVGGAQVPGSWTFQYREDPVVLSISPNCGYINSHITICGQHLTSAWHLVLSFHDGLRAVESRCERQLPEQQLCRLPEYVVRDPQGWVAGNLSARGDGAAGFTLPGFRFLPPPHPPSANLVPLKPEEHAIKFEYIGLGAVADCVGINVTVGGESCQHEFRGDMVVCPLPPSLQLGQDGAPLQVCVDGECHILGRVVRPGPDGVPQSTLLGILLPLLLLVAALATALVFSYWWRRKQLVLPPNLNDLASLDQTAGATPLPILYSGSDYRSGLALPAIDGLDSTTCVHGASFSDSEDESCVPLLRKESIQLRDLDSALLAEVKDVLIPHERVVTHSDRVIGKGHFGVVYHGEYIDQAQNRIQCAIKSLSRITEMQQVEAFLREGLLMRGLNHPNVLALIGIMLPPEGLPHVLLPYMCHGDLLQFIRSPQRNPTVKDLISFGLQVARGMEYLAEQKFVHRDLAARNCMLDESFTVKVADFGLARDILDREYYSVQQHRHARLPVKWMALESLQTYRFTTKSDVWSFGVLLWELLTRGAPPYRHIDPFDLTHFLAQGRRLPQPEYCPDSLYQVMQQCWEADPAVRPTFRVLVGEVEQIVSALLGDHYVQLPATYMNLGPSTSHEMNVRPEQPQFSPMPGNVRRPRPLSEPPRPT
Chain of MAPKAP-K2 (P49137 whole entry): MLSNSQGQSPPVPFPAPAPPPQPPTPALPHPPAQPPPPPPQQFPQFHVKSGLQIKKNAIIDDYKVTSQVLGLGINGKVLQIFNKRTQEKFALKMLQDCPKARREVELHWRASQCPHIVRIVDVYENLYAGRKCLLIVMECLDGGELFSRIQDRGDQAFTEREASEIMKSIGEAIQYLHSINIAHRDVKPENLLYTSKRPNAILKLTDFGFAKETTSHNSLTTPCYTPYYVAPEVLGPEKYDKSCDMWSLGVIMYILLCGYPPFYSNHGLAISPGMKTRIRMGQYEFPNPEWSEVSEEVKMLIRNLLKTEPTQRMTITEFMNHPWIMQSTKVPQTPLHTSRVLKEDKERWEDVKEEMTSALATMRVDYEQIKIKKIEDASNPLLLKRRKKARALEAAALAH
Chain of IRAK1 (P51617 whole entry): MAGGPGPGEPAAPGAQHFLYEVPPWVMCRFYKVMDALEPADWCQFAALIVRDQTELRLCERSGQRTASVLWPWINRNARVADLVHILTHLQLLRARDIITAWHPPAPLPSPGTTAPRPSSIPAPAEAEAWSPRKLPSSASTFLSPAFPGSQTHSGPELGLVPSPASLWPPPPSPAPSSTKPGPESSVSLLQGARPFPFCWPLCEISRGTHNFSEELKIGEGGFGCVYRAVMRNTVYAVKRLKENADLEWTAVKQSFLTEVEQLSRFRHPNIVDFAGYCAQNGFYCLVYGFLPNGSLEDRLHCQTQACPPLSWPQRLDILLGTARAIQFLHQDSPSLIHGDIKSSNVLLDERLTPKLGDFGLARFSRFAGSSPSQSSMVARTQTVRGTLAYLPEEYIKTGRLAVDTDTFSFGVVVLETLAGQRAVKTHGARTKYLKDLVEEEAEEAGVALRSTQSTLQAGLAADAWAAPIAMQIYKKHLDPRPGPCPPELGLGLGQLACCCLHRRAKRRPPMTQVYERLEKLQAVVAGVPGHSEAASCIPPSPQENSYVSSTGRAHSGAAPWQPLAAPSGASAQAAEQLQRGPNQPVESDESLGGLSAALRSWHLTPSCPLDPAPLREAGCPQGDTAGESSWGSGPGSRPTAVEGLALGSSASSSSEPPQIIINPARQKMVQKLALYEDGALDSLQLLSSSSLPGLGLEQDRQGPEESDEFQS
Chain of PKBβ (P31751 whole entry): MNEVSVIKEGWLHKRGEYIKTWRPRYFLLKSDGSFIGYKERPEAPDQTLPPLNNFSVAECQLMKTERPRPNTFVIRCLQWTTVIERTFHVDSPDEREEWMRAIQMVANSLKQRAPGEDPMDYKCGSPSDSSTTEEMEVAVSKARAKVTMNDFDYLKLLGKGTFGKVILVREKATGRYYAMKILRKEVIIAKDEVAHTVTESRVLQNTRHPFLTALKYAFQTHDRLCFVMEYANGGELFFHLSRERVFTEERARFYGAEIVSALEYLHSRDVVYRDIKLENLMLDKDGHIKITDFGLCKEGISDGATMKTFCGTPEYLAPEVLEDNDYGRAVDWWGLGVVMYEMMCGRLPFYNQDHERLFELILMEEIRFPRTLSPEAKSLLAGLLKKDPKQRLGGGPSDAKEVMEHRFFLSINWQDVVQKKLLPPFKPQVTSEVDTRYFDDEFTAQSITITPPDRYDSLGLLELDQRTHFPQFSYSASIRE

**Q.** How did the “Kinase activity, % of Control” value (CHK1; 1 ug/ml) turn out when `COc1cc(O)c(CC=C(C)C)c(O)c1C(=O)/C=C/c1ccc(O)cc1` [Xanthohumol, xanthohumol] was run?
**A.** Its value is 121 % of Control.

**Q.** What about the “Kinase activity, % of Control” value (CHK1; 5 ug/ml) of the same compound?
**A.** The value was 126 % of Control.

**Q.** And the “Kinase activity, % of Control” value (CHK1; 25 ug/ml)?
**A.** Its value is 142 % of Control.

**Q.** What about the “Kinase activity, % of Control” value (CHK1; 50 ug/ml) of the same compound?
**A.** The value was 149 % of Control.

**Q.** And the “Kinase activity, % of Control” value (PKBβ; 1 ug/ml)?
**A.** Its value is 146 % of Control.

**Q.** What about the “Kinase activity, % of Control” value (PKBβ; 5 ug/ml) of the same compound?
**A.** The value was 102 % of Control.

**Q.** What about the “Kinase activity, % of Control” value (PKBβ; 25 ug/ml) of the same compound?
**A.** Its value is 1 % of Control.

**Q.** What about the “Kinase activity, % of Control” value (PKBβ; 50 ug/ml) of the same compound?
**A.** Its value is 8 % of Control.

**Q.** And the “Kinase activity, % of Control” value (JAK3; 1 ug/ml)?
**A.** The value was 104 % of Control.

**Q.** And the “Kinase activity, % of Control” value (JAK3; 5 ug/ml)?
**A.** Its value is 84 % of Control.

**Q.** What about the “Kinase activity, % of Control” value (JAK3; 25 ug/ml) of the same compound?
**A.** Its value is 17 % of Control.

**Q.** And the “Kinase activity, % of Control” value (JAK3; 50 ug/ml)?
**A.** The value was 5 % of Control.

**Q.** What about the “Kinase activity, % of Control” value (Fyn; 1 ug/ml) of the same compound?
**A.** Its value is 104 % of Control.

**Q.** What about the “Kinase activity, % of Control” value (Fyn; 5 ug/ml) of the same compound?
**A.** The value was 66 % of Control.

**Q.** What about the “Kinase activity, % of Control” value (Fyn; 25 ug/ml) of the same compound?
**A.** The value was 42 % of Control.

**Q.** What about the “Kinase activity, % of Control” value (Fyn; 50 ug/ml) of the same compound?
**A.** Its value is 18 % of Control.

**Q.** What about the “Kinase activity, % of Control” value (PhKγ2; 1 ug/ml) of the same compound?
**A.** Its value is 106 % of Control.

**Q.** What about the “Kinase activity, % of Control” value (PhKγ2; 5 ug/ml) of the same compound?
**A.** Its value is 60 % of Control.

**Q.** What about the “Kinase activity, % of Control” value (PhKγ2; 25 ug/ml) of the same compound?
**A.** The value was 11 % of Control.

**Q.** And the “Kinase activity, % of Control” value (PhKγ2; 50 ug/ml)?
**A.** The value was 5 % of Control.

**Q.** What about the “Kinase activity, % of Control” value (EphA2; 1 ug/ml) of the same compound?
**A.** The value was 124 % of Control.

**Q.** What about the “Kinase activity, % of Control” value (EphA2; 25 ug/ml) of the same compound?
**A.** Its value is 121 % of Control.

**Q.** And the “Kinase activity, % of Control” value (EphA2; 50 ug/ml)?
**A.** Its value is 52 % of Control.

**Q.** And the “Kinase activity, % of Control” value (Ron; 1 ug/ml)?
**A.** Its value is 135 % of Control.

**Q.** What about the “Kinase activity, % of Control” value (Ron; 5 ug/ml) of the same compound?
**A.** Its value is 127 % of Control.

**Q.** What about the “Kinase activity, % of Control” value (Ron; 25 ug/ml) of the same compound?
**A.** Its value is 60 % of Control.

**Q.** What about the “Kinase activity, % of Control” value (Ron; 50 ug/ml) of the same compound?
**A.** Its value is 69 % of Control.

**Q.** What about the “Kinase activity, % of Control” value (MAPKAP-K2; 1 ug/ml) of the same compound?
**A.** Its value is 99 % of Control.

**Q.** What about the “Kinase activity, % of Control” value (MAPKAP-K2; 5 ug/ml) of the same compound?
**A.** The value was 95 % of Control.

**Q.** And the “Kinase activity, % of Control” value (MAPKAP-K2; 25 ug/ml)?
**A.** Its value is 6 % of Control.

**Q.** What about the “Kinase activity, % of Control” value (MAPKAP-K2; 50 ug/ml) of the same compound?
**A.** Its value is 8 % of Control.

**Q.** What about the “Kinase activity, % of Control” value (IRAK1; 1 ug/ml) of the same compound?
**A.** The value was 129 % of Control.

**Q.** What about the “Kinase activity, % of Control” value (IRAK1; 5 ug/ml) of the same compound?
**A.** The value was 104 % of Control.

**Q.** What about the “Kinase activity, % of Control” value (IRAK1; 50 ug/ml) of the same compound?
**A.** The value was 36 % of Control.

**Q.** And the “Kinase activity, % of Control” value (CK1γ2; 1 ug/ml)?
**A.** Its value is 92 % of Control.

**Q.** What about the “Kinase activity, % of Control” value (CK1γ2; 5 ug/ml) of the same compound?
**A.** The value was 48 % of Control.

**Q.** And the “Kinase activity, % of Control” value (CK1γ2; 25 ug/ml)?
**A.** Its value is 30 % of Control.

**Q.** And the “Kinase activity, % of Control” value (CK1γ2; 50 ug/ml)?
**A.** Its value is 12 % of Control.

Source: patent US20080031982A1 (Metaproteomics, LLC, priority 2006, published 2008)
